Assay results published in ChEMBL document CHEMBL6182828, “Medicinal chemistry-based perspectives on thiophene and its derivatives: exploring structural insights to discover plausible druggable leads” (RSC Med Chem, 2025).
≈ marks a conversion by molar mass, not a printed value.

Legend:
[1] = tested on: A549; assay: Growth inhibition of human A549 cells by SRB assay; assay type: functional
[2] = clinical; settings: human
[3] = tested on: Rattus norvegicus; assay: Anti-inflammatory activity against carrageenan-induced paw edema in Albino rat assessed as inhibition of paw edema at 50 mg/kg, po relative to control; assay type: functional; design: scale not given: the % may be the effect or the level left
[4] = tested on: Rattus norvegicus; assay: Anti-inflammatory activity against carrageenan-induced paw edema in Wistar rat assessed as inhibition of paw edema at 20 mg/kg, po by H and E staining based analysis relative to control; assay type: functional; design: scale not given: the % may be the effect or the level left
[5] = tested on: Streptococcus pneumoniae; assay: Antimicrobial activity against Streptococcus pneumoniae assessed as diameter of zone of inhibition by agar diffusion method; assay type: functional
[6] = tested on: Bacillus subtilis; assay: Antimicrobial activity against Bacillus subtilis assessed as diameter of zone of inhibition by agar diffusion method; assay type: functional
[7] = molecular target: T1, Acetylcholinesterase (Homo sapiens, UniProt P22303); assay: Inhibition of AChE (unknown origin) using acetylthiocholine iodide as substrate by Ellman's spectrophotometric analysis
T1 sequence (P22303 whole entry): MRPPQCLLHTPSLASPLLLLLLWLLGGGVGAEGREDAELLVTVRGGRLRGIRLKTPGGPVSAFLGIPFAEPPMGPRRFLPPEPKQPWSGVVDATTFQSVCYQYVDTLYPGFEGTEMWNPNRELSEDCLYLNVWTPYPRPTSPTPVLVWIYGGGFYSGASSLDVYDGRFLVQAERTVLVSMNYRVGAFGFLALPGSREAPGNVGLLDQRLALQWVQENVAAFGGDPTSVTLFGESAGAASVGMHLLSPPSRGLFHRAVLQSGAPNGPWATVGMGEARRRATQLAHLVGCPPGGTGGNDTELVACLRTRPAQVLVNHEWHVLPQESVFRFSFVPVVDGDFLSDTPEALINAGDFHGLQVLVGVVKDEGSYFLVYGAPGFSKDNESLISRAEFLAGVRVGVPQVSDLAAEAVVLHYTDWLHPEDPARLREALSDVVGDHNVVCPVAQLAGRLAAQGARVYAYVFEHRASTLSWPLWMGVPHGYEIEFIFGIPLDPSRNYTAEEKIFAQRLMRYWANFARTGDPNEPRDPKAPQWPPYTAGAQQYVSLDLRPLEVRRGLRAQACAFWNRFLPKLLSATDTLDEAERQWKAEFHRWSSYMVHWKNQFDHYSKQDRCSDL

[8] = molecular target: Amine oxidase [flavin-containing] B (Homo sapiens, UniProt P27338); assay: Inhibition of human recombinant MAO-B extracted from baculovirus infected in BTI-TN-5B1-4 insect cells incubated for 20 mins by Amplex Red reagent based fluorescence analysis; assay type: cell-based
Chain of Amine oxidase [flavin-containing] B (P27338 whole entry): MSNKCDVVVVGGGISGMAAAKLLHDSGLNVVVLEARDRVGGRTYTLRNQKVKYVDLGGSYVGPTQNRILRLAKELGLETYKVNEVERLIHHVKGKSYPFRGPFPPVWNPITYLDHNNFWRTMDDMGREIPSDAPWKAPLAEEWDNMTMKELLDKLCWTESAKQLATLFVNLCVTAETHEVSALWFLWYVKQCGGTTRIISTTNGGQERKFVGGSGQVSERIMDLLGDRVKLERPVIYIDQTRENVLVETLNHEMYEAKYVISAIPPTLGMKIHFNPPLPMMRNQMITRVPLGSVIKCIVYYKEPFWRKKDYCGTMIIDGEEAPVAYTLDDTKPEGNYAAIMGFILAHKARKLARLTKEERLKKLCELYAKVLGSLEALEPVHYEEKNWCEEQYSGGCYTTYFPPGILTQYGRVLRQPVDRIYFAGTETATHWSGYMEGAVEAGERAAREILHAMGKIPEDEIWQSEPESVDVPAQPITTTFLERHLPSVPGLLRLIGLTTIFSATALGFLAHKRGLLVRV

[9] = Half life in human at 15 mg/kg, po; assay type: ADME, organism-based; settings: in vivo
[10] = Half life in human at 0.7 mg/kg, po; settings: in vivo
[11] = tested on: Streptococcus pneumoniae; assay: Antimicrobial activity against Streptococcus pneumoniae assessed as reduction in cell growth by XTT assay; assay type: functional, organism-based
[12] = tested on: Staphylococcus aureus; assay: Antimicrobial activity against Staphylococcus aureus assessed as reduction in cell growth by XTT assay; assay type: functional, organism-based
[13] = Half life in po dosed human plasma; assay type: ADME, organism-based
[14] = Terminal half life in human; assay type: ADME; settings: read-out: beta t1/2 (converted)
[15] = tested on: Escherichia coli; assay: Antimicrobial activity against Escherichia coli assessed as diameter of zone of inhibition; assay type: functional
[16] = tested on: HCT-116; assay: Cytotoxicity against human HCT-116 cells assessed as reduction in cell growth incubated for 24 hrs by MTT assay; assay type: functional, cell-based; settings: HCT-116, 24 h
[17] = tested on: SF-295; assay: Cytotoxicity against human SF-295 cells assessed as reduction in cell growth incubated for 24 hrs by MTT assay; assay type: functional, cell-based; settings: SF-295, 24 h
[18] = tested on: HL-60; assay: Cytotoxicity against human HL-60 cells assessed as reduction in cell growth incubated for 24 hrs by MTT assay; assay type: functional, cell-based; settings: HL-60, 24 h
[19] = tested on: OVCAR-8; assay: Cytotoxicity against human OVCAR-8 cells assessed as reduction in cell growth incubated for 24 hrs by MTT assay; assay type: functional, cell-based; settings: OVCAR-8, 24 h
[20] = Half life of compound; assay type: physicochemical
[21] = tested on: HepG2; assay: Antiproliferative activity against human HepG2 cells assessed as reduction in cell growth measured for 96 hrs by Neutral red uptake assay; assay type: functional, cell-based; settings: HepG2, 96 h
[22] = Half life in human at 6 mg/kg; assay type: ADME, organism-based; settings: in vivo
[23] = tested on: Penicillium chrysogenum; assay: Antifungal activity against Penicillium chrysogenum assessed as diameter of zone of inhibition at 100 ug/ml by cup-plate agar diffusion method; assay type: functional; settings: read-out: IZ
[24] = Terminal half life in human at 2.5 mg/kg, po; assay type: ADME, organism-based; settings: in vivo, read-out: beta t1/2 (converted)
[25] = Elimination half life in human at 0.8 mg/kg, sc; assay type: ADME, organism-based; settings: in vivo, read-out: LambdaZ (converted)
[26] = molecular target: Beta-secretase 1 (Homo sapiens, UniProt P56817); assay: Inhibition of human recombinant BACE1 expressed in HEK293 cells by FRET assay; assay type: cell-based
Chain of Beta-secretase 1 (P56817 whole entry, the tested form may be a part): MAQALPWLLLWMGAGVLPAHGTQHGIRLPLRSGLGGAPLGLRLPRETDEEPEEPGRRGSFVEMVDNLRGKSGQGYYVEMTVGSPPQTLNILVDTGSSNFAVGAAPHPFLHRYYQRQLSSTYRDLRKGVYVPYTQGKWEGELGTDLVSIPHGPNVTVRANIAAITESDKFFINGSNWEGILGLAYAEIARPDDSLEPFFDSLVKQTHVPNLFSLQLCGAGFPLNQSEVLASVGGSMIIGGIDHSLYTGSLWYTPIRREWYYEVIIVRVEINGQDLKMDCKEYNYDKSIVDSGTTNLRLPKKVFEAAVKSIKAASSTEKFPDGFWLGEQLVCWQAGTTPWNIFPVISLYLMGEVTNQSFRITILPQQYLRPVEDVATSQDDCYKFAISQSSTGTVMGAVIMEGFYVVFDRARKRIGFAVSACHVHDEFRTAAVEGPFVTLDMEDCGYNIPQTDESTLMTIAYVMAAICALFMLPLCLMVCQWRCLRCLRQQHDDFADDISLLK

[27] = tested on: Staphylococcus aureus; assay: Antibacterial activity against Staphylococcus aureus assessed as zone of inhibition at 100 ug/ml by cup-plate agar diffusion method; assay type: functional; settings: read-out: IZ
[28] = tested on: Bacillus subtilis; assay: Antibacterial activity against Bacillus subtilis ATCC 6633 assessed as zone of inhibition; assay type: functional
[29] = tested on: Salmonella paratyphi; assay: […] activity against Salmonella enterica subsp. enterica serovar Paratyphi A assessed as zone of inhibition at 100 ug/ml by cup-plate agar diffusion method; assay type: functional; settings: read-out: IZ
[30] = tested on: Aspergillus niger; assay: Antifungal activity against Aspergillus niger assessed as diameter of zone of inhibition at 100 ug/ml by cup-plate agar diffusion method; assay type: functional; settings: read-out: IZ
[31] = tested on: MIA PaCa-2; assay: Cytotoxicity against human MIA PaCa-2 cells; assay type: functional, cell-based
[32] = Inhibition of EGFR2 (unknown origin); design: species or system Homo sapiens
[33] = Terminal half life in human plasma; assay type: ADME, cell-free; settings: read-out: beta t1/2 (converted)
[34] = molecular target: Cholinesterase (Homo sapiens, UniProt P06276); assay: Inhibition of BChE (unknown origin)
Chain of Cholinesterase (P06276 whole entry): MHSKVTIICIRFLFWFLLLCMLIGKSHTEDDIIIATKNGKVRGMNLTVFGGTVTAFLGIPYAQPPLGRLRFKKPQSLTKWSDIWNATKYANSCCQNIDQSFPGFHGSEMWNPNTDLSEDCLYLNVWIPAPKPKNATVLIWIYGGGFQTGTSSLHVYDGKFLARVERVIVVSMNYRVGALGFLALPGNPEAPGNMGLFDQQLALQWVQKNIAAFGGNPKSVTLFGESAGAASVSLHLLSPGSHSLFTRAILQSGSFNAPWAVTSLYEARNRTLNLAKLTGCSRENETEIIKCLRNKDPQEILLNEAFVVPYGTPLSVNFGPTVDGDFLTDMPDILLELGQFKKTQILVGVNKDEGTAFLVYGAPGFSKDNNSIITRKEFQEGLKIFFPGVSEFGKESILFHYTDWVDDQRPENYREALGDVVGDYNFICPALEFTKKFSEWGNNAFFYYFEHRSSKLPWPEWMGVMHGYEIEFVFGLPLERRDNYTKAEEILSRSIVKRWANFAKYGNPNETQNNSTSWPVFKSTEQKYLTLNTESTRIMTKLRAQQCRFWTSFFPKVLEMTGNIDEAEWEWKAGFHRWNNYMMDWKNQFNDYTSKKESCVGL

[35] = molecular target: T1, Acetylcholinesterase; assay: Inhibition of AChE (unknown origin)
[36] = tested on: MCF7; assay: Cytotoxicity against human MCF7 cells assessed as reduction in cell viability; assay type: functional, cell-based
[37] = tested on: SMMC-7721; assay: cells; settings: Homo sapiens, SMMC-7721, 72 h
Description: Antiproliferative activity against human SMMC-7721 cells assessed as reduction in cell viability measured for 72 hrs by MTT assay

CCOC(=O)c1c(/N=C/c2ccc(Br)cc2)sc2c1CCCC2
GI50 [1]: 8040 nM

Clc1ccccc1CN1CCc2sccc2C1 [TICLOPIDINE]
half-life [2]: 7.9 h

CC(=O)c1c(Nc2ccc(C)cc2)sc(-c2nc3ccccc3c(=O)n2-c2ccc(Cl)cc2)c1C
Activity [3]: 58.6%
Activity [4]: 48.94%

CCOC(=O)c1c(Nc2ccccc2)sc(C2=CN3NCC=C3N2)c1-c1ccccc1
inhibition zone (IZ) [5]: 12.3 mm
inhibition zone (IZ) [6]: 12.7 mm

FC(F)(F)c1cccc(-c2cc(-c3cccs3)n(-c3ccc(Br)cc3)n2)c1
IC50 [7]: 0.48 nM

O=c1oc2cc(O)ccc2cc1-c1cc(Br)cs1
IC50 [8]: 140 nM

Cc1cc2c(s1)Nc1ccccc1N=C2N1CCN(C)CC1 [OLANZAPINE]
half-life [9]: 21 h

COC(=O)[C@H](c1ccccc1Cl)N1CCc2sccc2C1 [CLOPIDOGREL]
half-life [10]: 6 h

CCOC(=O)c1c(Nc2ccccc2)sc(Cc2ccc(-n3cnnn3)cc2)c1N
IC50 [11]: 9.83 µg/mL (≈ 23.4 µM)
IC50 [12]: 7.62 µg/mL (≈ 18.1 µM)

CN1CCC(=C2c3ccccc3CC(=O)c3sccc32)CC1 [KETOTIFEN]
half-life [13]: 3 h

O=C(NC[C@H]1CN(c2ccc(N3CCOCC3=O)cc2)C(=O)O1)c1ccc(Cl)s1 [RIVAROXABAN]
half-life [14]: 5 h

NC(=S)N/N=C(\C=C\c1ccc(Cl)cc1Cl)c1cccs1
inhibition zone (IZ) [15]: 15 mm

COc1cccc(/C=N/NC(=O)c2cccs2)c1O
IC50 [16]: 820 nM
IC50 [17]: 820 nM
IC50 [18]: 820 nM
IC50 [19]: 820 nM

CCN[C@H]1C[C@H](C)S(=O)(=O)c2sc(S(N)(=O)=O)cc21 [DORZOLAMIDE]
t1/2 [20]: 4 months

COc1ccc(C2=NNC(=O)c3c(sc(C(N)=O)c3C)N2)cc1
IC50 [21]: 4.37 µg/mL (≈ 13.2 µM)

CCN[C@H]1CN(CCCOC)S(=O)(=O)c2sc(S(N)(=O)=O)cc21 [BRINZOLAMIDE]
half-life [22]: 111 h

NC1=C(C(=O)Nn2c(=O)cc(-c3ccccc3)c3ccc(O)cc32)SCC1
zone of inhibition at 100 µg/mL [23]: 27 mm

CCCCc1ncc(/C=C(\Cc2cccs2)C(=O)O)n1Cc1ccc(C(=O)O)cc1 [EPROSARTAN]
half-life [24]: 5 h

NC(N)=NCCC[C@@H](N)C(=O)N[C@@H](CCCN=C(N)N)C(=O)N1CCC[C@H]1C(=O)N1C[C@H](O)C[C@H]1C(=O)NCC(=O)N[C@@H](Cc1cccs1)C(=O)N[C@@H](CO)C(=O)N1Cc2ccccc2C[C@@H]1C(=O)N1[C@H](C(=O)N[C@@H](CCCN=C(N)N)C(=O)O)C[C@@H]2CCCC[C@@H]21 [ICATIBANT]
half-life [25]: 1.4 h

COC(=O)c1cc(C)cc2sc3cccc(OC)c3c12
IC50 [26]: 600 nM

Cc1cc2ccc(O)cc2n(NC(=O)c2sc3cc(F)ccc3c2N)c1=O
zone of inhibition at 100 µg/mL [27]: 23 mm
inhibition zone (IZ) [28]: 25 mm
zone of inhibition at 100 µg/mL [29]: 22 mm
zone of inhibition at 100 µg/mL [30]: 26 mm

CN1CCN(CC(=O)Nc2sc3c(c2C#N)CCC(C(C)(C)C)C3)CC1 (configuration not stated)
IC50 [31]: 13400 nM
IC50 [32]: 680 nM

CCCN(CCc1cccs1)[C@H]1CCc2c(O)cccc2C1 [ROTIGOTINE]
half-life [33]: 7 h

O=C(NNC(=S)Nc1ccccc1[N+](=O)[O-])c1sccc1Cl
IC50 [34]: 1900 nM
IC50 [35]: 400 nM

O=C1S/C(=C\c2cccc(Cl)c2Cl)C(=O)N1Cc1nnc(-c2cccs2)o1
IC50 [36]: 4.83 µg/mL (≈ 11 µM)

O=C(Nc1ccsc1C(=O)N/N=C/c1ccc(F)cc1)c1ccc(Cl)cc1Cl
IC50 [37]: 320 nM
